Legend:
[1] = test system: RVP in rat eyes injected with human vitreous; experiment: Transplant of human vitreous into rat vitreous, RVP measurement; format: in vivo; details: vitreous pretreated with 10 μM
Experimental: In these tests, 10 μl of human vitreous was injected into the rat vitreous compartment and the response on retinal vascular permeability was measured.

[2] = test system: retinal vascular permeability (RVP) in rats; experiment: Video fluorescein angiography of rat retina after intravitreal injection; format: in vivo
Experimental: (§1) To measure retinal vascular permeability, 265 male Sprague Dawley and 12 male Long-Evans rats (Taconic Farms, Germantown, N.Y.) with initial body weights of 250 g were used. Experiments were performed in accordance with guidelines from the Association for Research in Vision and Opthalmology and approval from the Animal Care and Use committee of the Joslin Diabetes Center. Video fluorescein angiography was performed using a scanning laser opthalmoscope (Rodenstock Instrument, Munich, Germany) (Horio et al., Diabetologia 47:113-123 (2004)). Vitreous fluorophotometry and administration of fluorescein-dextran was performed as described previously (Aiello et al., Diabetes 46:1473-1480 (1997)).
Carbonic anhydrase was not detected by either mass spectroscopy or western blot analysis in the vitreous of untreated Sprague Dawley rats.

[3] = test system: retinal vascular permeability (RVP) in rats; experiment: Retinal vascular permeability by vitreous fluorophotometry after intravitreal injection; format: in vivo, rat; details: for RVP (vitreous fluorescein intensity): CA-1 200 ng/eye, BSS control 7.4 au; for effect on CA-1 induced permeability: co-injection of serpin family proteins
Experimental: as §1
Intravitreal injection of CA-1 increased RVP, as measured by vitreous fluorophotometry, in a dose-dependent manner (FIG. 3A), with a maximal increase of 2.3 fold (p<0.05) at 2 μg. […] The effect of a single dose of CA-1 on RVP was sustained at 59% over control at 24 hours post injection (FIG. 3B).

[4] = test system: retinal vascular permeability (RVP) in rats; experiment: Retinal Evans blue permeability after intravitreal lysed RBC or CA-1; format: in vivo, rat
Experimental: To prepare lysed RBCs, 3 ml rat blood in 15 ml saline was centrifuged at 1,000 g for 10 minutes; the plasma and buffy coat were discarded. The RBCs were then washed in 12 ml saline. The packed cells were frozen in liquid nitrogen for 5 minutes and then allowed to thaw at room temperature. The lysed RBCs were centrifuged at 12,000 rpm for 30 minutes. The supernatant was used for experiment. […] Approximate 21 hours later, Evans blue was injected at a dosage of 30 mg/kg. After the dye had circulated for 3 hours the rats were perfused via the left ventricle with saline. The retina were harvested and Evans blue dye was extracted by incubation in 0.3 ml formamide for 20 hours at 60° C. The extract was centrifuged (14,000 rpm for 30 minutes). The absorbance of the filtrate was measured with a spectrophotometer at 620 nm. The concentration of dye in the extracts was calculated from a standard curve.

[5] = test system: blood-brain barrier permeability in rats; experiment: Blood-brain barrier permeability to Evans blue after subdural infusion; format: in vivo, rat
Experimental: Approximately 22 hours later, 0.7 ml Evans blue was injected through a jugular vein catheter. After the dye circulated for 120 minutes, the rats were perfused with 50 ml saline through the left ventricle at 110 mmHg pressure. After decapitation, the brain was weighed and Evan's blue was extracted by incubating each brain in 1 ml of formamide for 20 hours at 60° C. The extract was centrifuged (14,000 rpm for 30 minutes). The absorbance of the filtrate was measured with a spectrophotometer at 620 nm. The concentration of dye in the extracts was calculated from a standard curve of Evans blue in formamide, normalized to the brain weight, and expressed per gram of tissue.

[6] = test system: retina of streptozotocin diabetic rats; experiment: OCT imaging of retinal thickness in diabetic rats after intravitreal CA-1; format: in vivo, rat
Experimental: Rats had diabetes induced by intraperitoneal injection of streptozotocin (55 mg/kg) after overnight fast. Diabetes was confirmed after 24 hours with blood glucose greater than 250 mg/dl. After 2 weeks of diabetes, rats were injected intravitreally with CA-1 or BSS and the retinas imaged by OCT after 48 hours. Retinal ultrastructure was imaged and quantitatively measured using a high-speed, ultrahigh resolution OCT system with Fourier/spectral domain detection. Using a broadband superluminescent diode light source (Superlum Diodes Limited, Moscow, Russia) with a 155 nm bandwidth, a 2.6 μm axial resolution in tissue was achieved after digital spectral shaping. The imaging speed was 26,000 axial scans per second and the system sensitivity was 96 dB with an axial (depth) scan range of 1.3 mm in tissue. The OCT research instrument was designed for small animal retinal imaging and used a post-objective scanning microscope with a 10 μm transverse resolution. Corneal refraction was compensated with a coverslip and Goniosol (CIBA Vision Ophthalmics). Each data set consisted of 256 images with 512 axial scans per image, acquired in a raster pattern on the retina. Measurements of intraretinal layer thicknesses were performed on individual cross sectional OCT images.

[7] = intravitreal injection of 100 μM
[8] = diabetic rat, 48 hours after intravitreal injection, OCT

## CC(=O)Nc1nnc(S(N)(=O)=O)s1 [acetazolamide, reference compound]
[1]
  effect on RVP in rat eyes injected with vitreous from noDR and NDM groups: did not affect
[1]; reduced from 13.67±5.23, P=0.017, n=5
  RVP in rat eyes injected with vitreous from subjects with PDR: 9.20±3.85
[2]; co-injection 10 μM with CA-1
  effect on increase in RVP induced by CA-1: blocked
[3]; 10 μM
  effect on basal RVP: no effect
[3]; Rattus norvegicus, co-injection of 10 μM, p<0.05, read-out: inhibition of CA-1 induced RVP
  inhibition at 10 µM: 68%
[4]; pretreatment of lysed RBC with 10 μM, P<0.05
  effect on increase in RVP by lysed RBC: blocked

## CC(=O)N[C@@H](CC(C)C)C(=O)N[C@@H](CC(C)C)C(=O)N[C@H](C=O)CCCNC(=N)N [leupeptin, reference compound]
[3]; [7]
  reduction of CA-1 stimulated RVP: 71%

## CA-1: carbonic anhydrase-1, extracellular erythrocyte enzyme injected as vascular permeability factor
[5]; subdural infusion, 24 hours
  Evan's blue leakage on posterior and anterior surfaces of the brain: induced intense focal areas of Evan's blue leakage
[5]; subdural infusion, Evan's blue quantification, P<0.05
  increase of permeability in brain compared to BSS: 2.3 fold
[2]; 48 hours after intravitreal injection
  retinal vascular leakage (fluorescein and 2000 kDa fluorescein-dextran): focal areas of retinal vascular leakage were observed
[2]; intravitreal 2 μg/ml, at 30 minutes, vs baseline or BSS
  retinal fluorescein leakage: increased retinal fluorescein leakage
[6]; 48 hours
  increase of ONL share of retinal thickness compared with BSS-treated diabetic rats: 17%
  increase of ONL share of retinal thickness compared with nondiabetic rats: 18%
[6]; diabetic rat, 48 hours
  ONL share of overall retinal thickness: 38%
[6]; [8]
  increase in outer nuclear layer (ONL) thickness vs contralateral saline vehicle eye: 30%
  increase in retina thickness vs contralateral saline vehicle eye: 12%
[3]; 200 ng/eye (20 μg/ml) intravitreal, vs BSS, P<0.05
  increase of RVP: 2.4 fold
[3]; at 2 μg intravitreal, p<0.05
  maximal increase of RVP: 2.3 fold
[3]; following dilution in 100 uL of rat vitreous
  EC50 as final concentration in vitreous: about 670 pg/μL
[3]; intravitreal injection
  EC50 for increase of RVP: 67 ng
  RVP (vitreous fluorescein intensity): 17.4 au
[3]; single dose, 24 hours post injection
  RVP over control: 59%
[4]; intravitreal injection, Evans blue
  RVP compared with eyes that received BSS: 3.0 fold

## Hoe 140 [reference compound]
[3]; co-injection with CA-1
  reduction of CA-1 stimulated RVP: 67%

## VEGF
[3]; intravitreal injection
  RVP (vitreous fluorescein intensity): 14.5 au

## aprotinin [reference compound]
[3]; [7]
  reduction of CA-1 stimulated RVP: 50%

B1: C1-INH: Complement-1 Inhibitor, inhibits the serum protease kallikrein (protein, UniProt P05155 23-500, looked up)
Plasma protease C1 inhibitor: NPNATSSSSQDPESLQDRGEGKVATTVISKMLFVEPILEVSSLPTTNSTTNSATKITANTTDEPTTQPTTEPTTQPTIQPTQPTTQLPTDSPTQPTTGSFCPGPVTLCSDLESHSTEAVLGDALVDFSLKLYHAFSAMKKVETNMAFSPFSIASLLTQVLLGAGENTKTNLESILSYPKDFTCVHQALKGFTTKGVTSVSQIFHSPDLAIRDTFVNASRTLYSSSPRVLSNNSDANLELINTWVAKNTNNKISRLLDSLPSDTRLVLLNAIYLSAKWKTTFDPKKTRMEPFHFKNSVIKVPMMNSKKYPVAHFIDQTLKAKVGQLQLSHNLSLVILVPQNLKHRLEDMEQALSPSVFKAIMEKLEMSKFQPTLLTLPRIKVTTSQDMLSIMEKLEFFDFSYDLNLCGLTEDPDLQVSAMQHQTVLELTETGVEAAAASAISVARTLLVFEVQQPFLFVLWDQQHKFPVFMGRVYDPRA
[5]; subdural, with CA-1
  effect on CA-1-induced cerebral vascular permeability: blocked
[3]; co-injection
  effect on VEGF-induced retinal fluorescein permeability: did not affect
[3]; co-injection with CA-1
  reduction of CA-1 stimulated RVP: 92%

B2: angiotensinogen: serpin family protein (protein, UniProt P01019 25-476, looked up)
Angiotensinogen: DRVYIHPFHLVIHNESTCEQLAKANAGKPKDPTFIPAPIQAKTSPVDEKALQDQLVLVAAKLDTEDKLRAAMVGMLANFLGFRIYGMHSELWGVVHGATVLSPTAVFGTLASLYLGALDHTADRLQAILGVPWKDKNCTSRLDAHKVLSALQAVQGLLVAQGRADSQAQLLLSTVVGVFTAPGLHLKQPFVQGLALYTPVVLPRSLDFTELDVAAEKIDRFMQAVTGWKTGCSLMGASVDSTLAFNTYVHFQGKMKGFSLLAEPQEFWVDNSTSVSVPMLSGMGTFQHWSDIQDNFSVTQVPFTESACLLLIQPHYASDLDKVEGLTFQQNSLNWMKKLSPRTIHLTMPQLVLQGSYDLQDLLAQAELPAILHTELNLQKLSNDRIRVGEVLNSIFFELEADEREPTESTQQLNKPEVLEVTLNRPFLFAVYDQSATALHFLGRVANPLSTA
[3]
  effect on CA-1 induced permeability: did not block

B3: PEDF: pigment epithelium-derived factor, serpin family protein (protein, UniProt P36955 20-418, looked up)
Pigment epithelium-derived …: QNPASPPEEGSPDPDSTGALVEEEDPFFKVPVNKLAAAVSNFGYDLYRVRSSTSPTTNVLLSPLSVATALSALSLGAEQRTESIIHRALYYDLISSPDIHGTYKELLDTVTAPQKNLKSASRIVFEKKLRIKSSFVAPLEKSYGTRPRVLTGNPRLDLQEINNWVQAQMKGKLARSTKEIPDEISILLLGVAHFKGQWVTKFDSRKTSLEDFYLDEERTVRVPMMSDPKAVLRYGLDSDLSCKIAQLPLTGSMSIIFFLPLKVTQNLTLIEESLTSEFIHDIDRELKTVQAVLTVPKLKLSYEGEVTKSLQEMKLQSLFDSPDFSKITGKPIKLTQVEHRAGFEWNEDGAGTTPSPGLQPAHLTFPLDYHLNQPFIFVLRDTDTGALLFIGKILDPRGP
[3]
  effect on CA-1 induced permeability: did not block
